# Test results reported in US20150225762A1, “SAME-DAY BLOOD CULTURE WITH DIGITAL MICROSCOPY” (ACCELERATE DIAGNOSTICS, INC., priority 2012, published 2015).
# Tests used:
# Ecol 35218 [1] = assay: FISH detection of live and killed bacteria with or without protease digestion; format: cell-based, E. coli
# Paer 27853 [2] = assay: Plate count of live bacteria after killing treatment; format: cell-based, P. aeruginosa
# Kpne 13882 [3] = assay: as above
# Paer 27853 [4] = assay: FISH detection of live and killed bacteria with or without protease digestion; format: cell-based, P. aeruginosa
# Saur 12600 [5] = assay: as above; format: cell-based, S. aureus
# Ecol 35218 [6] = assay: Plate count of live bacteria after killing treatment; format: cell-based, E. coli
# Kpne 13882 [7] = assay: FISH detection of live and killed bacteria with or without protease digestion; format: cell-based, K. pneumoniae
# Saur 12600 [8] = assay: Plate count of live bacteria after killing treatment; format: cell-based, S. aureus
# [9] = 1 hour, with protease (0.2 mg/mL Pronase)
# [10] = 1 hour, with protease (0.2 mg/mL Pronase), cells live or pre-killed as labelled
# [11] = 4 hour, with protease (0.2 mg/mL Pronase)
# [12] = 4 hour, with protease (0.2 mg/mL Pronase), cells live or pre-killed as labelled
# [13] = 0 hr, after gentamycin 100 micrograms per mL 1 hour or 80% ethanol
# [14] = gentamycin 1 hour or 80% ethanol
substance,measurement,setting,value
gentamycin,FISH Conc,"Ecol 35218 [1]; 1 hour, no protease",8.8 × 10^6 cells/mL
same,Positive Detection?,"Ecol 35218 [1]; 1 hour, no protease",Yes (A detection threshold of 1×10^4 cells per mL was used as the threshold for a positive call in the FISH assay)
same,Positive Detection?,Ecol 35218 [1]; [9],Yes (A detection threshold of 1×10^4 cells per mL was used as the threshold for a positive call in the FISH assay)
same,FISH Conc,Ecol 35218 [1]; [10],5.5 × 10^5 cells/mL
same,FISH Conc,"Ecol 35218 [1]; 4 hour, no protease",4.8 × 10^5 cells/mL
same,Positive Detection?,"Ecol 35218 [1]; 4 hour, no protease",Yes (A detection threshold of 1×10^4 cells per mL was used as the threshold for a positive call in the FISH assay)
same,Positive Detection?,Ecol 35218 [1]; [11],Yes (A detection threshold of 1×10^4 cells per mL was used as the threshold for a positive call in the FISH assay)
same,FISH Conc,Ecol 35218 [1]; [12],4.5 × 10^5 cells/mL
same,Conc of live bacteria by plating,Paer 27853 [2]; [13],20 cfu/mL
same,"Killing by plating, in words",Paer 27853 [2]; [14],substantially killed
same,Conc of live bacteria by plating,Kpne 13882 [3]; [13],60 cfu/mL
same,"Killing by plating, in words",Kpne 13882 [3]; [14],substantially killed
same,FISH Conc,"Paer 27853 [4]; 1 hour, no protease",3.7 × 10^5 cells/mL
same,Positive Detection?,"Paer 27853 [4]; 1 hour, no protease",Yes (A detection threshold of 1×10^4 cells per mL was used as the threshold for a positive call in the FISH assay)
same,Positive Detection?,Paer 27853 [4]; [9],Yes (A detection threshold of 1×10^4 cells per mL was used as the threshold for a positive call in the FISH assay)
same,FISH Conc,Paer 27853 [4]; [10],5.3 × 10^4 cells/mL
same,FISH Conc,"Paer 27853 [4]; 4 hour, no protease",3.0 × 10^5 cells/mL
same,Positive Detection?,"Paer 27853 [4]; 4 hour, no protease",Yes (A detection threshold of 1×10^4 cells per mL was used as the threshold for a positive call in the FISH assay)
same,Positive Detection?,Paer 27853 [4]; [11],No (A detection threshold of 1×10^4 cells per mL was used as the threshold for a positive call in the FISH assay)
same,FISH Conc,Paer 27853 [4]; [12],6.7 × 10^3 cells/mL
same,FISH Conc,"Saur 12600 [5]; 1 hour, no protease",1.4 × 10^5 cells/mL
same,Positive Detection?,"Saur 12600 [5]; 1 hour, no protease",Yes (A detection threshold of 1×10^4 cells per mL was used as the threshold for a positive call in the FISH assay)
same,Positive Detection?,Saur 12600 [5]; [9],Yes (A detection threshold of 1×10^4 cells per mL was used as the threshold for a positive call in the FISH assay)
same,FISH Conc,Saur 12600 [5]; [10],1.1 × 10^5 cells/mL
same,FISH Conc,"Saur 12600 [5]; 4 hour, no protease",3.0 × 10^4 cells/mL
same,Positive Detection?,"Saur 12600 [5]; 4 hour, no protease",Yes (A detection threshold of 1×10^4 cells per mL was used as the threshold for a positive call in the FISH assay)
same,Positive Detection?,Saur 12600 [5]; [11],Yes (A detection threshold of 1×10^4 cells per mL was used as the threshold for a positive call in the FISH assay)
same,FISH Conc,Saur 12600 [5]; [12],3.0 × 10^4 cells/mL
same,Conc of live bacteria by plating,Ecol 35218 [6]; [13],10 cfu/mL
same,"Killing by plating, in words",Ecol 35218 [6]; [14],substantially killed
same,FISH Conc,"Kpne 13882 [7]; 1 hour, no protease",1.7 × 10^5 cells/mL
same,Positive Detection?,"Kpne 13882 [7]; 1 hour, no protease",Yes (A detection threshold of 1×10^4 cells per mL was used as the threshold for a positive call in the FISH assay)
same,Positive Detection?,Kpne 13882 [7]; [9],Yes (A detection threshold of 1×10^4 cells per mL was used as the threshold for a positive call in the FISH assay)
same,FISH Conc,Kpne 13882 [7]; [10],7.7 × 10^4 cells/mL
same,FISH Conc,"Kpne 13882 [7]; 4 hour, no protease",<1 × 10^3 cells/mL
same,Positive Detection?,"Kpne 13882 [7]; 4 hour, no protease",No (A detection threshold of 1×10^4 cells per mL was used as the threshold for a positive call in the FISH assay)
same,Positive Detection?,Kpne 13882 [7]; [11],Yes (A detection threshold of 1×10^4 cells per mL was used as the threshold for a positive call in the FISH assay)
same,FISH Conc,Kpne 13882 [7]; [12],1.7 × 10^4 cells/mL
same,Conc of live bacteria by plating,Saur 12600 [8]; [13],2 × 10^3 cfu/mL
same,"Killing by plating, in words",Saur 12600 [8]; [14],a significant number of S. aureus remained alive
